Experimental data taken from patent publication US10392422B2, “Macrocyclic broad spectrum antibiotics” (priority 2014, dated 2019).
In brackets after ≈: the same amount, converted by molar mass. Read-outs that look alike come from different tables or passages of the source.

What was measured:
Assay in all cases: MIC, broth micro-dilution technique (CLSI)
MRSA COL (NRS100) = format: cell-based, Staphylococcus aureus; conditions: Staphylococcus aureus, 22 h, read-out: MIC (μg/mL) (COL)
Outline: (§1)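 CLSI broth microdilution in cation-adjusted Mueller Hinton broth with 0.002% v/v Tween-80. Compounds were serially 2-fold diluted over 10 concentrations from 64 μg/ml, or from 4 μg/mL in a modified protocol; inoculum at final OD600 0.0005, incubated 35° C for 22 hours.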

[1] = test system: Escherichia coli MC4100 harboring the IMP4213; format: cell-based; conditions: Escherichia coli, 22 h, read-out: MIC (μg/mL) E. coli, Table 1 protocol: serial 2-fold dilutions starting from 64 μg/ml; 35° C., 22 hours
Outline: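 CLSI broth microdilution in cation-adjusted Mueller Hinton broth with 0.002% Tween-80. Ten 2-fold dilutions started from 64 μg/ml, or from 4 μg/mL in the modified protocol. Inoculum at final OD600 0.0005; MIC read after 22 h at 35 °C. E. coli strain carries imp4213 (increased outer-membrane permeability).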

[2] = test system: Methicillin Resistant Staphylococcus aureus strain USA 300 (NRS384); format: cell-based; conditions: Staphylococcus aureus, 22 h, read-out: MIC (μg/mL) S. aureus
Outline: as §1

[3] = Table 1 protocol: serial 2-fold dilutions starting from 64 μg/ml, 35° C., 22 hours

| Structure (SMILES) | MIC (MRSA COL (NRS100); [3]) [µg/mL] | MIC [1] [µg/mL] | MIC [2, 3] [µg/mL] | MIC (MRSA COL (NRS100)) [µg/mL] | MIC [2] [µg/mL] |
| --- | --- | --- | --- | --- | --- |
| CC(=O)[C@H](C)NC(=O)[C@@H]1Cc2ccc(O)c(c2)-c2cc(ccc2OCCNCC(=O)O)[C@H](N(C)C(=O)[C@H](CCCCN)NC(=O)c2ccc(-c3ccc(Cl)cc3)cc2)C(=O)N[C@@H](C)C(=O)N1 [Compound 205] | 6 (≈ 6.48 µM) | 32 (≈ 34.5 µM) | 32 (≈ 34.5 µM) | – | – |
| CNCCCNCCOc1ccc2cc1-c1cc(ccc1O)C[C@@H](C(=O)N[C@@H](C)C(C)=O)NC(=O)[C@H](C)NC(=O)[C@H]2N(C)C(=O)[C@H](CCCCN)NC(=O)c1ccc(-c2ccc(Cl)cc2)cc1 [Compound 206] | 0.19 (≈ 0.202 µM) | 4 (≈ 4.26 µM) | 4 (≈ 4.26 µM) | – | – |
| CC(=O)[C@H](C)NC(=O)[C@@H]1Cc2ccc(OCC(=O)O)c(c2)-c2cc(ccc2O)[C@H](N(C)C(=O)[C@H](CCCCN)NC(=O)c2ccc(-c3ccc(Cl)cc3)cc2)C(=O)N[C@@H](C)C(=O)N1 [Compound 207] | 6 (≈ 6.79 µM) | 32 (≈ 36.2 µM) | 32 (≈ 36.2 µM) | – | – |
| CC(=O)[C@H](C)NC(=O)[C@@H]1Cc2ccc(OCC(=O)O)c(c2)-c2cc(ccc2OCCN)[C@H](N(C)C(=O)[C@H](CCCCN)NC(=O)c2ccc(-c3ccc(Cl)cc3)cc2)C(=O)N[C@@H](C)C(=O)N1 [Compound 208] | 6 (≈ 6.48 µM) | 16 (≈ 17.3 µM) | 23 (≈ 24.8 µM) | – | – |
| CC(=O)[C@H](C)NC(=O)[C@@H]1Cc2ccc(OCCN)c(c2)-c2cc(ccc2OCCN)[C@H](N(C)C(=O)[C@H](CCCCN)NC(=O)c2ccc(-c3ccc(Cl)cc3)cc2)C(=O)N[C@@H](C)C(=O)N1 [Compound 209] | 0.13 (≈ 0.143 µM) | 4 (≈ 4.39 µM) | 0.5 (≈ 0.549 µM) | – | – |
| CC(=O)[C@H](C)NC(=O)[C@@H]1Cc2ccc(O)c(c2)-c2cc(cc(CN)c2O)[C@H](N(C)C(=O)[C@H](CCCCN)NC(=O)c2ccc(-c3ccccc3)cc2)C(=O)N[C@@H](C)C(=O)N1 [Compound 210] | 4 (≈ 4.88 µM) | 32 (≈ 39 µM) | 32 (≈ 39 µM) | – | – |
| C[C@@H]1NC(=O)[C@@H](N(C)C(=O)[C@H](CCCCN)NC(=O)c2ccc(-c3ccc(Cl)cc3)cc2)c2cc(c3oc(CN)cc3c2)-c2cc(ccc2O)C[C@@H](C(=O)O)NC1=O [Compound 211] | – | 2 (≈ 2.47 µM) | – | 2 (≈ 2.47 µM) | 11 (≈ 13.6 µM) |
| CC(=O)[C@H](C)NC(=O)[C@@H]1Cc2ccc(O)c(c2)-c2cc(cc3cc(CN)oc23)[C@H](N(C)C(=O)[C@H](CCCCN)NC(=O)c2ccc(-c3ccc(Cl)cc3)cc2)C(=O)N[C@@H](C)C(=O)N1 [Compound 212] | 0.5 (≈ 0.569 µM) | 5.7 (≈ 6.49 µM) | 2.5 (≈ 2.85 µM) | – | – |
| CC(=O)[C@H](C)NC(=O)[C@@H]1Cc2ccc(O)c(c2)-c2cc(cc(CCCN)c2OCCN)[C@H](N(C)C(=O)[C@H](CCCCN)NC(=O)c2ccc(-c3ccccc3)cc2)C(=O)N[C@@H](C)C(=O)N1 [Compound 213] | 2 (≈ 2.24 µM) | 4 (≈ 4.49 µM) | 16 (≈ 18 µM) | – | – |
| CCCCCCCCCCNCCS(=O)(=O)N[C@@H](CCCCN)C(=O)N(C)[C@@H]1C(=O)N[C@@H](C)C(=O)N[C@H](C(=O)O)Cc2ccc(O)c(c2)-c2cc1ccc2O [Compound 214] | – | 64 (≈ 81.1 µM) | – | 0.75 (≈ 0.951 µM) | 2.8 (≈ 3.55 µM) |
| CCCCCCCCCCNCCS(=O)(=O)N[C@@H](CCCCN)C(=O)N(C)[C@@H]1C(=O)N[C@@H](C)C(=O)N[C@H](C(=O)N[C@@H](C)C(=O)N2CCC[C@H]2C(N)=O)Cc2ccc(O)c(c2)-c2cc1ccc2O [Compound 215] | 0.25 (≈ 0.261 µM) | > 64 | 0.5 (≈ 0.523 µM) | – | – |
| CCCCCCCCCCNCCS(=O)(=O)N[C@@H](CCCCN)C(=O)N(C)[C@@H]1C(=O)N[C@@H](C)C(=O)N[C@H](C(=O)N[C@@H](C)C(C)=O)Cc2ccc(O)c(c2)-c2cc1ccc2OCCN [Compound 216] | 0.063 (≈ 0.0699 µM) | 64 (≈ 71 µM) | 0.13 (≈ 0.144 µM) | – | – |
| CCCCCCCCCNCCCS(=O)(=O)N[C@@H](CCCCN)C(=O)N(C)[C@@H]1C(=O)N[C@@H](C)C(=O)N[C@H](C(=O)N[C@@H](C)C(C)=O)Cc2ccc(O)c(c2)-c2cc1ccc2O [Compound 217] | 0.75 (≈ 0.874 µM) | > 64 | 2 (≈ 2.33 µM) | – | – |
| CCCCCCCCCCNCCS(=O)(=O)N[C@@H](CCN)C(=O)N(C)[C@@H]1C(=O)N[C@@H](C)C(=O)N[C@H](C(=O)N[C@@H](C)C(C)=O)Cc2ccc(O)c(c2)-c2cc1ccc2O [Compound 218] | – | > 64 | – | 0.13 (≈ 0.157 µM) | 0.35 (≈ 0.422 µM) |
| CCCCCCCCCCNCCS(=O)(=O)N[C@@H](CCCN)C(=O)N(C)[C@@H]1C(=O)N[C@@H](C)C(=O)N[C@H](C(=O)N[C@@H](C)C(C)=O)Cc2ccc(O)c(c2)-c2cc1ccc2O [Compound 219] | – | > 64 | – | 0.13 (≈ 0.154 µM) | 0.35 (≈ 0.415 µM) |
| CCCCCCCCCCCCS(=O)(=O)N[C@@H](CCCCN)C(=O)N(C)[C@@H]1C(=O)N[C@@H](C)C(=O)N[C@H](C(=O)O)Cc2ccc(O)c(c2)-c2cc1ccc2O [Compound 220] | – | 16 (≈ 20.7 µM) | – | 0.33 (≈ 0.426 µM) | 2 (≈ 2.58 µM) |

| Structure (SMILES) | MIC (MRSA COL (NRS100); [3]) [µg/mL] | MIC [1] [µg/mL] | MIC [2, 3] [µg/mL] | MIC (MRSA COL (NRS100)) [µg/mL] | MIC [2] [µg/mL] |
| --- | --- | --- | --- | --- | --- |
| CCCCCCCCCCCCS(=O)(=O)N[C@@H](CCCCN)C(=O)N(C)[C@@H]1C(=O)N[C@@H](C)C(=O)N[C@H](C(=O)N[C@@H](C)C(C)=O)Cc2ccc(O)c(c2)-c2cc1ccc2O [Compound 221] | 0.13 (≈ 0.154 µM) | 45 (≈ 53.4 µM) | 0.5 (≈ 0.593 µM) | – | – |
| CCCCCCCCCCS(=O)(=O)N[C@@H](CCCCN)C(=O)N(C)[C@@H]1C(=O)N[C@@H](C)C(=O)N[C@H](C(=O)O)Cc2ccc(O)c(c2)-c2cc1ccc2O [Compound 222] | – | > 64 | – | 3 (≈ 4.02 µM) | 16 (≈ 21.4 µM) |
| CC(=O)[C@H](C)NC(=O)[C@@H]1Cc2ccc(O)c(c2)-c2cc(ccc2O)[C@H](N(C)C(=O)[C@H](CCCCN)NS(=O)(=O)c2ccc(-c3ccc(Cl)cc3)cc2)C(=O)N[C@@H](C)C(=O)N1 [Compound 223] | 2 (≈ 2.32 µM) | 32 (≈ 37.1 µM) | 0.71 (≈ 0.824 µM) | – | – |
| CCCCCCCCCCS(=O)(=O)N[C@@H](CCCCN)C(=O)N(C)[C@@H]1C(=O)N[C@@H](C)C(=O)N[C@H](C(=O)N[C@@H](C)C(=O)N2CCC[C@H]2C(N)=O)Cc2ccc(O)c(c2)-c2cc1ccc2O [Compound 224] | 0.13 (≈ 0.142 µM) | 64 (≈ 70.1 µM) | 16 (≈ 17.5 µM) | – | – |
| C[C@@H]1NC(=O)[C@@H](N(C)C(=O)[C@H](CCCCN)NS(=O)(=O)c2ccc(-c3ccc(Cl)cc3)cc2)c2ccc(O)c(c2)-c2cc(ccc2O)C[C@@H](C(=O)N[C@@H](C)C(=O)N2CCC[C@H]2C(N)=O)NC1=O [Compound 225] | 6 (≈ 6.25 µM) | > 64 | 23 (≈ 24 µM) | – | – |
| CC(=O)[C@H](C)NC(=O)[C@@H]1Cc2ccc(O)c(c2)-c2cc(cc(C#CCN)c2OCCN)[C@H](N(C)C(=O)[C@H](CCCCN)NC(=O)c2ccc(-c3ccc(Cl)cc3)cc2)C(=O)N[C@@H](C)C(=O)N1 [Compound 226] | 0.25 (≈ 0.271 µM) | 4 (≈ 4.34 µM) | 4 (≈ 4.34 µM) | – | – |
| C[C@@H]1NC(=O)[C@@H](N(C)C(=O)[C@H](CCCCN)NC(=O)c2ccc(-c3ccc(Cl)cc3)cc2)c2ccc(O)c(c2)-c2cc(ccc2O)C[C@@H](C(=O)N[C@@H](C)C(=O)C(=O)Nc2ccn[nH]2)NC1=O [Compound 227] | 2 (≈ 2.17 µM) | > 64 | 12 (≈ 13 µM) | – | – |
| C[C@@H]1NC(=O)[C@@H](N(C)C(=O)[C@H](CCCCN)NC(=O)c2ccc(-c3ccc(Cl)cc3)cc2)c2ccc(O)c(c2)-c2cc(ccc2O)C[C@@H](C(=O)N[C@@H](C)C(=O)C(F)(F)C(N)=O)NC1=O [Compound 228] | 2 (≈ 2.21 µM) | 15 (≈ 16.6 µM) | 5.3 (≈ 5.86 µM) | – | – |
| C[C@@H]1NC(=O)[C@@H](N(C)C(=O)[C@H](CCCCN)NC(=O)c2ccc(-c3ccc(Cl)cc3)cc2)c2ccc(O)c(c2)-c2cc(ccc2O)C[C@@H](C(=O)N[C@@H](C)C(=O)c2c[nH]cn2)NC1=O [Compound 229] | 1 (≈ 1.14 µM) | 24 (≈ 27.4 µM) | 4 (≈ 4.56 µM) | – | – |
| C[C@@H]1NC(=O)[C@@H](N(C)C(=O)[C@H](CCCCN)NC(=O)c2ccc(-c3ccc(Cl)cc3)cc2)c2ccc(O)c(c2)-c2cc(ccc2O)C[C@@H](C(=O)N[C@@H](C)C(=O)c2c[nH]nn2)NC1=O [Compound 230] | 8 (≈ 9.11 µM) | > 64 | 64 (≈ 72.9 µM) | – | – |
| C[C@@H]1NC(=O)[C@@H](N(C)C(=O)[C@H](CCCCN)NC(=O)c2ccc(-c3ccc(Cl)cc3)cc2)c2ccc(O)c(c2)-c2cc(ccc2O)C[C@@H](C(=O)N[C@@H](C)C(=O)c2nnc[nH]2)NC1=O [Compound 231] | 1 (≈ 1.14 µM) | 8 (≈ 9.11 µM) | 6 (≈ 6.83 µM) | – | – |
| C[C@@H]1NC(=O)[C@@H](N(C)C(=O)[C@H](CCCCN)NC(=O)c2ccc(-c3ccc(Cl)cc3)cc2)c2ccc(O)c(c2)-c2cc(ccc2O)C[C@@H](C(=O)N[C@@H](C)C(=O)c2ncc[nH]2)NC1=O [Compound 232] | 1 (≈ 1.14 µM) | 8 (≈ 9.12 µM) | 4 (≈ 4.56 µM) | – | – |
| CCC(=O)[C@H](C)NC(=O)[C@@H]1Cc2ccc(O)c(c2)-c2cc(ccc2O)[C@H](N(C)C(=O)[C@H](CCCCN)NC(=O)c2ccc(-c3ccc(Cl)cc3)cc2)C(=O)N[C@@H](C)C(=O)N1 [Compound 233] | 4 (≈ 4.77 µM) | 32 (≈ 38.1 µM) | 24 (≈ 28.6 µM) | – | – |
| CCN(CC(N)=O)C(=O)[C@H](C)NC(=O)[C@@H]1Cc2ccc(O)c(c2)-c2cc(ccc2O)[C@H](N(C)C(=O)[C@H](CCCCN)NC(=O)c2ccc(-c3ccc(Cl)cc3)cc2)C(=O)N[C@@H](C)C(=O)N1 [Compound 234] | 8 (≈ 8.78 µM) | 64 (≈ 70.2 µM) | 64 (≈ 70.2 µM) | – | – |
| C[C@@H]1NC(=O)[C@@H](N(C)C(=O)[C@H](CCCCN)NC(=O)c2ccc(-c3ccc(Cl)cc3)cc2)c2ccc(O)c(c2)-c2cc(ccc2O)C[C@@H](C(=O)N[C@@H](C)C(=O)c2ccn[nH]2)NC1=O [Compound 235] | 2 (≈ 2.28 µM) | 32 (≈ 36.5 µM) | 4 (≈ 4.56 µM) | – | – |
